Where two headings read alike, the source gives them in different places.
What was measured:
[1] = target: T1, EGFR L858R (Homo sapiens, UniProt P00533, L858R); test: Inhibition of EGFR L858R biochemical enzymatic activity (HTRF); conditions: 1 mM ATP
T1 construct: purchased Carna Bio
Procedure: (§1) Biological Example 1: Inhibition of EGFR WT and Mutant Biochemical Enzymatic Activity
(§2) The inhibition potency of compounds against these enzymes was assessed using Homogenous Time Resolved Fluorescence approach (HTRF, CisBio. Cat No. 62TKOPEJ).
(§3) Inhibitory effects of the compounds were determined by measuring the enzymatic activity of EGFR enzyme phosphorylates 1 μM TK Substrate-biotin in the presence of 1 mM adenosine-5′-triphosphate (ATP) and varying concentrations of the test compound. The enzyme reaction buffer contains 5 mM MgCl2, 1 mM MnC12, 0.01% CHAPS, 1 mM dithiothreitol (DTT), 0.5% dimethylsulfoxide (DMSO), and 1× supplemented enzymatic buffer. The WT and mutant EGFR enzymes (SignalChem) were added to plates containing inhibitors, followed by activation of the kinase reaction by addition of ATP and peptide substrates. After incubation for 1 h at room temperature, the reaction was stopped by the addition of the detection reagent mix containing EDTA. The fluorescence was measured at 615 nm and 665 nm, respectively with excitation wavelength at 320 nm. The calculated signal ratio of 665 nm/615 nm is proportional to the kinase activity. The concentration of compound producing 50% inhibition of the respective kinase (IC50) was calculated using four-parameter logistic fit with XL-FIT.

[2] = target: T2, EGFR wild type (Homo sapiens, UniProt P00533); test: Inhibition of EGFR wild type biochemical enzymatic activity (HTRF); conditions: 1 mM ATP
T2 construct: purchased Carna Bio
Procedure: as §1, §2, §3

[3] = target: T3, EGFR[T790M/C797S/d746-750] (Homo sapiens, UniProt P00533, C797S/DEL746-750/T790M); test: Inhibition of EGFR[T790M/C797S/d746-750] biochemical enzymatic activity (HTRF)
T3 construct: purchased Carna Bio
Procedure: as §1, §2, §3

[4] = target: T4, EGFR[T790M/C797S/L858R] (Homo sapiens, UniProt P00533, C797S/L858R/T790M); test: Inhibition of EGFR[T790M/C797S/L858R] biochemical enzymatic activity (HTRF); conditions: 1 mM ATP
T4 construct: purchased Carna Bio
Procedure: as §1, §2, §3

[5] = target: T5, EGFR (C797S L858R) (Homo sapiens, UniProt P00533, C797S/L858R); test: Inhibition of EGFR (C797S L858R) biochemical enzymatic activity (HTRF); conditions: 1 mM ATP
T5 construct: purchased signalchem
Procedure: as §1, §2, §3

[6] = target: T6, EGFR L858R/T790M (Homo sapiens, UniProt P00533, L858R/T790M); test: Inhibition of EGFR L858R/T790M biochemical enzymatic activity (HTRF); conditions: 1 mM ATP
T6 construct: purchased Carna Bio
Procedure: as §1, §2, §3

[7] = target: T7, EGFR Exon19Del/T790M (Homo sapiens, UniProt P00533, DEL746-750/T790M); test: Inhibition of EGFR Exon19Del/T790M biochemical enzymatic activity (HTRF); conditions: 1 mM ATP
T7 construct: purchased Carna Bio
Procedure: as §1, §2, §3

[8] = test system: Ba/F3 cells expressing EGFR mutations; test: Cell proliferation assay, Ba/F3 cells expressing EGFR mutations (CellTiter-Glo, 72 hours); assay type: cell-based
Procedure: (§4) Biological Example 2: Cell Proliferation Assays
(§5) Ba/F3 cells expressing EGFR mutations were seeded in 384-well plates at 5000 cells/well in RPMI1640 medium containing […]. PC-9 at 500 cells/well was seeded into 384-well plates in RPMI1640 medium with 10% FBS. After overnight incubation, the assay plates were dosed with compounds at a series of concentrations. Alongside dosing the assay plates, the day 0 plate was processed using CellTiter-Glo® Luminescent Cell Viability Assay (Promega) to measure the number of viable cells (G0). The assay plates were further incubated for 72 hours and the number of viable cells (G3) was measured. The percentage of proliferation was calculated as: […]=100×(G3 value of sample well−G0 value)/(G3 value of DMSO control−G0 value). The concentration of compound producing 50% proliferation inhibition (GI50) was further calculated in best-fit curves using XLFit software. N/A=not available.

[9] = target: T8, EGFR Exon19Del (Homo sapiens, UniProt P00533, DEL746-750); test: Inhibition of EGFR Exon19Del biochemical enzymatic activity (HTRF); conditions: read-out: IC50 @Del19
T8 construct: purchased Carna Bio
Procedure: as §1, §2, §3

[10] = target: T9, EGFR (d746-750 C797S) (Homo sapiens, UniProt P00533, C797S/DEL746-750); test: Inhibition of EGFR (d746-750 C797S) biochemical enzymatic activity (HTRF); conditions: 1 mM ATP
T9 construct: purchased signalchem
Procedure: as §1, §2, §3

[11] = test system: PC-9; test: Cell proliferation assay, PC-9 cells (CellTiter-Glo, 72 hours); assay type: cell-based; conditions: PC9 cells, read-out: GI50 PC9
Procedure: as §4, §5

[12] = 1 h at room temperature, read-out: IC50 @L858R
[13] = EGFR[T790M/C797S/d746-750], 1 mM ATP, 1 h at room temperature, read-out: IC50 @T790M - C797S - Del19
[14] = EGFR[T790M/C797S/L858R], 1 h at room temperature, read-out: IC50 @T790M- C797S - L858R
[15] = EGFR (C797S L858R), 1 h at room temperature, read-out: IC50 @L858-C797S
[16] = EGFR L858R/T790M, 1 h at room temperature, read-out: IC50 @L858R-T790M
[17] = EGFR Exon19Del/T790M, 1 h at room temperature, read-out: IC50 @Del19-T790M
[18] = BaF3 cells, EGFR DEL19 - C797S, read-out: GI50 DEL19 - C797S/BaF3
[19] = BaF3 cells, EGFR L858R - T790-C797S, read-out: GI50 L858R - T790-C797S/BaF3
[20] = BaF3 cells, EGFR L858R - T790M, read-out: GI50 L858R - T790M/BaF3
[21] = BaF3 cells, EGFR L858R, read-out: GI50 L858R/BaF3
[22] = EGFR DEL19 - T790M, read-out: GI50 DEL19 - T790M
[23] = EGFR Exon19Del, 1 mM ATP, 1 h at room temperature
[24] = EGFR (d746-750 C797S), 1 h at room temperature, read-out: IC50 @Del19-C797S

T8 sequence (P00533 with tags, fused parts or gaps DEL746-750 limits assumed): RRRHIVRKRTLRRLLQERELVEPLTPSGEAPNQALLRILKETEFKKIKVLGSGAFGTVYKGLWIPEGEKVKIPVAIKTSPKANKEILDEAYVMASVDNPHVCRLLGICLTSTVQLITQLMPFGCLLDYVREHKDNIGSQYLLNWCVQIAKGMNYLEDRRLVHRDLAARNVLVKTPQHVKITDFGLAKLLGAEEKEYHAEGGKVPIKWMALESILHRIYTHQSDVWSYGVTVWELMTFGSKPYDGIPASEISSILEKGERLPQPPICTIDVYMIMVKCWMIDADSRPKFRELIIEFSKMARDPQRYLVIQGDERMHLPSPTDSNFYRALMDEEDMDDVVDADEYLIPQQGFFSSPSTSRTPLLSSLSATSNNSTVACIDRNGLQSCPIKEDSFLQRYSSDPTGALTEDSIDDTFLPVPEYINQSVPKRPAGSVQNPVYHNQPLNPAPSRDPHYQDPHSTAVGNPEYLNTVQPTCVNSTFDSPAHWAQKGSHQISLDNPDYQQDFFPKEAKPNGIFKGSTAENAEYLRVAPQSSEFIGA
T1 sequence (P00533 25-1210 L858R): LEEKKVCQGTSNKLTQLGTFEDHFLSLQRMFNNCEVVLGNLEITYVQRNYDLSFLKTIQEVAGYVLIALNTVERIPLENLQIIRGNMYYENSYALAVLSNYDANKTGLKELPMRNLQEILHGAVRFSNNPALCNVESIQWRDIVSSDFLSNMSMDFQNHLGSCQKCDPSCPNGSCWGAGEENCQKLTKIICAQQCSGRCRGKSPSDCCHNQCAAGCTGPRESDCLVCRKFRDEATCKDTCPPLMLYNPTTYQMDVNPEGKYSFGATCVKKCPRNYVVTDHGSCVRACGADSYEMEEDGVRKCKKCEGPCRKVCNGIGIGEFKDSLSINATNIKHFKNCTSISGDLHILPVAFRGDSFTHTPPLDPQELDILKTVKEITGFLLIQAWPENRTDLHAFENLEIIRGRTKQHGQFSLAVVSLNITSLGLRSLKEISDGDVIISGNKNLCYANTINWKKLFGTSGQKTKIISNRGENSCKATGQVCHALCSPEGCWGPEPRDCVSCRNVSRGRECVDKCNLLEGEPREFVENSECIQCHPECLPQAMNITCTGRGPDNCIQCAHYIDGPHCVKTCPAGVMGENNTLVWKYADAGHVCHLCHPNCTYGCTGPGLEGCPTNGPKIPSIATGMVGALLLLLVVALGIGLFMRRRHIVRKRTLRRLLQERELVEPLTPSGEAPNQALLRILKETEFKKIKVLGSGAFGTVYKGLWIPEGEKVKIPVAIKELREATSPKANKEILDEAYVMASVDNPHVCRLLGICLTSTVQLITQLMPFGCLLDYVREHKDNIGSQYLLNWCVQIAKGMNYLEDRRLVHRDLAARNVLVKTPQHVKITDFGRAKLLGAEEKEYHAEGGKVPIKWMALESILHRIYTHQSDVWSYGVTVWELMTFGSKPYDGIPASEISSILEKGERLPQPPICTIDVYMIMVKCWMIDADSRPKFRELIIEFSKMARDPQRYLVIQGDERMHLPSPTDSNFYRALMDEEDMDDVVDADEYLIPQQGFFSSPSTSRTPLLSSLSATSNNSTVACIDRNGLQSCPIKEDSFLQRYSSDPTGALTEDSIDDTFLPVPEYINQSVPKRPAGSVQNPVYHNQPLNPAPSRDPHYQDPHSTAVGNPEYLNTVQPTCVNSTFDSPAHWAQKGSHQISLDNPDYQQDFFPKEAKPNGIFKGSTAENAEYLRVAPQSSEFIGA
T5 sequence (P00533 25-1210 C797S/L858R): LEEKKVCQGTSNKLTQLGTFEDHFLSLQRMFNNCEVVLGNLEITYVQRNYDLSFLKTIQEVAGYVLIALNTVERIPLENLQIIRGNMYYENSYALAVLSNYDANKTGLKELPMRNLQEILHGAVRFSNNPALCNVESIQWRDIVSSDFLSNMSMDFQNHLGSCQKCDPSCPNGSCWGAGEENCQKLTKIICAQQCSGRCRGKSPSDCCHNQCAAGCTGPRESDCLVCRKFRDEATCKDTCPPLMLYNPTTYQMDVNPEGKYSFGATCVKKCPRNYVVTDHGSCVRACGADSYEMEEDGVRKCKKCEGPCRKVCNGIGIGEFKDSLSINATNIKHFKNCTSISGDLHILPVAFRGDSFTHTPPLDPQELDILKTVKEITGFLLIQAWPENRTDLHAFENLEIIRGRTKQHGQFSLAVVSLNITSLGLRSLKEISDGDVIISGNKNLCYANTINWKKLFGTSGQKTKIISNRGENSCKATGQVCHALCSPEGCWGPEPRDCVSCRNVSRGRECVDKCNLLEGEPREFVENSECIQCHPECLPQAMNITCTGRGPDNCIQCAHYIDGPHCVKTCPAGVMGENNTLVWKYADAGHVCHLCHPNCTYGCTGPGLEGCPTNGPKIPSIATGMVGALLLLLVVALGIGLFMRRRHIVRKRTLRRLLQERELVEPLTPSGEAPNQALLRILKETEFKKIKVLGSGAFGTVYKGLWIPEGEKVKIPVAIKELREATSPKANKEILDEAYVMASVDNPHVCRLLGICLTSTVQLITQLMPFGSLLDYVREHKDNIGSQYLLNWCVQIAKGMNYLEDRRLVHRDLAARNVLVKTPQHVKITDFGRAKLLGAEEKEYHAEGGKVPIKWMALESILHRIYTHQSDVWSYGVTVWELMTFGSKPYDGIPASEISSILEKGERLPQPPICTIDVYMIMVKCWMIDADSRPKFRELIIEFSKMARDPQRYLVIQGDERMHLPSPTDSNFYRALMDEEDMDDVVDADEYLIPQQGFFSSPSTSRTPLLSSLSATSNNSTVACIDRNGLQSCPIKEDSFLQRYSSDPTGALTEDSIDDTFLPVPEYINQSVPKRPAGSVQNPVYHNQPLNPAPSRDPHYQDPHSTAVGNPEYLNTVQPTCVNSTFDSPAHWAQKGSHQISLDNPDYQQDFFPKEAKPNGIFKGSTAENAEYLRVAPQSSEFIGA
T9 sequence (P00533 with tags, fused parts or gaps DEL746-750/C797S limits assumed): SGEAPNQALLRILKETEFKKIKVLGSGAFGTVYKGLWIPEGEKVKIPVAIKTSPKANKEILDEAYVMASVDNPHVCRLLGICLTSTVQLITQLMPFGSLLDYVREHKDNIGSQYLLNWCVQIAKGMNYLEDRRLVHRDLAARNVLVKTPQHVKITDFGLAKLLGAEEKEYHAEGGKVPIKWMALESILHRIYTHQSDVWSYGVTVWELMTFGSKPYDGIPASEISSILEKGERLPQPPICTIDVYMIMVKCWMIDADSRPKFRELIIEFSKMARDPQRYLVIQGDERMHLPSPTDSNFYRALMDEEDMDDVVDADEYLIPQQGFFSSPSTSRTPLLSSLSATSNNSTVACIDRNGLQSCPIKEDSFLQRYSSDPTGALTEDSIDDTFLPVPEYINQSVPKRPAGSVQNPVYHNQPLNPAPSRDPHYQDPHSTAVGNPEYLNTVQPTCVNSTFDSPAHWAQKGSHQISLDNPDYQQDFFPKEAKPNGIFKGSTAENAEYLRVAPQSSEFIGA
T3 sequence (P00533 with tags, fused parts or gaps DEL746-750/T790M/C797S limits assumed): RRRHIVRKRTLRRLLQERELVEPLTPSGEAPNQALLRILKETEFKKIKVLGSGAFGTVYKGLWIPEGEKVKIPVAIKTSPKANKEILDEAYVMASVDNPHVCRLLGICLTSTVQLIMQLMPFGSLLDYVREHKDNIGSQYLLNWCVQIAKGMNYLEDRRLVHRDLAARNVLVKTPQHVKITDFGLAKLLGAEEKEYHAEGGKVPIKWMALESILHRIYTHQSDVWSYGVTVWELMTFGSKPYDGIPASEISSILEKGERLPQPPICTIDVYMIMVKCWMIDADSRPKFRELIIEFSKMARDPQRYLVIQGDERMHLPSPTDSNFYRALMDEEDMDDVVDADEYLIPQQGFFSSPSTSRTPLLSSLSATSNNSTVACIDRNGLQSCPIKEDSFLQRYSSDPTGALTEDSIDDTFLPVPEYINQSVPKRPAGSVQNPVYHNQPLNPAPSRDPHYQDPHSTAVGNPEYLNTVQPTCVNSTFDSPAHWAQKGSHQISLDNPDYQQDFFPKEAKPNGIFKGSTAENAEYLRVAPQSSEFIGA
T7 sequence (P00533 with tags, fused parts or gaps DEL746-750/T790M limits assumed): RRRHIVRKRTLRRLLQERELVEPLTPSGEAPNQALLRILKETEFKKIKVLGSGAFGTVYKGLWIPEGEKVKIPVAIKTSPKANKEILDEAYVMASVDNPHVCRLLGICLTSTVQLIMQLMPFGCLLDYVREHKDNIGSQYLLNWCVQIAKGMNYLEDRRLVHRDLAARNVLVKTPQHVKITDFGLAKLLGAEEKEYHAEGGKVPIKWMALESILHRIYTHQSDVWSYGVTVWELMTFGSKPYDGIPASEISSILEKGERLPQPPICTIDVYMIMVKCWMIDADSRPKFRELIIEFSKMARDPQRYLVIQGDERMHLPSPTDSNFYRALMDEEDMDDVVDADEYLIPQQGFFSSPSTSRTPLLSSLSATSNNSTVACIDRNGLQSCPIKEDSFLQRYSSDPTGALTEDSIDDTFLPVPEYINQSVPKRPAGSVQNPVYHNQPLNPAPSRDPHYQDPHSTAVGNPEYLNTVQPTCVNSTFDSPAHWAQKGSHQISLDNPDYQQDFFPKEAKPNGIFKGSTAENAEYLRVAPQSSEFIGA

Row | SMILES | IC50 [1, 12] [nM] | IC50 [3, 13] [nM] | IC50 [4, 14] [nM] | IC50 [5, 15] [nM] | IC50 [6, 16] [nM] | IC50 [7, 17] [nM] | GI50 [8, 18] [nM] | GI50 [8, 19] [nM] | GI50 [8, 20] [nM] | GI50 [8, 21] [nM] | GI50 [8, 22] [nM] | IC50 [9, 23] [nM] | IC50 [10, 24] [nM] | other results
1 | Cc1cc2cc(n1)-c1cnn(C)c1OCCN1CC3CCC(CC3)(C1)n1c(nc3ccc(N4CCC5(CCN(C)CC5)C4)cc31)NC2=O [Example B38] | 560 | 8.2 | 14 | 300 | 37 | 21 | 24 | 19 | 38 | 81 | 10 | 38 | 26 | IC50 ([2]; EGFR wild type, 1 h at room temperature, read-out: IC50 @WT): > 5000 nM
2 | Cc1cc2cc(n1)-c1cnn(C)c1OCCN1CC3CCC(C3)(C1)n1c(nc3ccc(N4CCC(N5CCOCC5)C4)cc31)NC2=O (single isomer, unassigned) [Example B44A] | > 5000 | 4640 | > 5000 | > 5000 | > 5000 | > 5000 | 312 | 52 | 326 | 3000 | 368 | > 5000 | > 5000 | GI50 ([8]; BaF3 cells, EGFR DEL19 - T790-C797S, read-out: GI50 DEL19 - T790-C797S/BaF3): 321 nM; GI50 ([8]; BaF3 cells, EGFR L858R - C797S, read-out: GI50 L858R - C797S/BaF3): 624 nM; GI50 [11]: 1400 nM
3 | CN(C)CCC1CN(c2ccc3nc4n(c3c2)C23CCC(CN(CCOc5c(cnn5C)-c5cc(cn(C)c5=O)C(=O)N4)C2)C3)C1 (single isomer, unassigned) [Example A95A] |  |  |  |  |  |  |  |  |  |  |  |  |  | IC50 ([1]; 1 h, room temperature, read-out: IC50 (nM) @L858R): 4640 nM; IC50 ([2]; EGFR WT, 1 h, room temperature, read-out: IC50 (nM) @WT): > 5000 nM; IC50 ([3]; EGFR T790M-C797S-Del19, 1 mM ATP, 1 h, room temperature, read-out: IC50 (nM) @T790M - C797S - Del19): > 5000 nM; IC50 ([4]; EGFR T790M-C797S-L858R, 1 h, room temperature, read-out: IC50 (nM) @T790M- C797S - L858R): > 5000 nM; IC50 ([5]; EGFR L858-C797S, 1 h, room temperature, read-out: IC50 (nM) @L858-C797S): > 5000 nM; IC50 ([6]; EGFR L858R-T790M, 1 h, room temperature, read-out: IC50 (nM) @L858R-T790M): > 5000 nM; IC50 ([7]; EGFR Del19-T790M, 1 h, room temperature, read-out: IC50 (nM) @Del19-T790M): > 5000 nM; IC50 ([9]; EGFR Del19, 1 mM ATP, 1 h, room temperature): 864 nM; IC50 ([10]; EGFR Del19-C797S, 1 h, room temperature, read-out: IC50 (nM) @Del19-C797S): 899 nM

Reference: patent US20260365670A1, “EGFR INHIBITORS AND USES THEREOF” (DIZAL (JIANGSU) PHARMACEUTICAL CO., LTD., priority 2022, published 2026)
